Measurements taken from ChEMBL document CHEMBL3044821, “Microwave-induced CAN promoted atom-economic synthesis of 1H-benzo[b]xanthene and 4H-benzo[g]chromene derivatives of N-allyl quinolone and their antimicrobial activity” (2013).
In brackets after ≈: the same amount, converted by molar mass.

Tests used:
Assay type in all cases: functional
Aspergillus clavatus = test: Antifungal activity against Aspergillus clavatus MTCC 1323 assessed as growth inhibition after 24 to 48 hr by NCCLS broth microdilution method
Pseudomonas aeruginosa = test: Antibacterial activity against Pseudomonas aeruginosa MTCC 1688 assessed as growth inhibition after 24 to 48 hr by NCCLS broth microdilution method
Streptococcus pyogenes = test: Antibacterial activity against Streptococcus pyogenes MTCC 442 assessed as growth inhibition after 24 to 48 hr by NCCLS broth microdilution method
Candida albicans = test: Antifungal activity against Candida albicans MTCC 227 assessed as growth inhibition after 24 to 48 hr by NCCLS broth microdilution method
Staphylococcus aureus = test: Antibacterial activity against Staphylococcus aureus MTCC 96 assessed as growth inhibition after 24 to 48 hr by NCCLS broth microdilution method
Aspergillus niger = test: Antifungal activity against Aspergillus niger MTCC 282 assessed as growth inhibition after 24 to 48 hr by NCCLS broth microdilution method
Escherichia coli = test: Antibacterial activity against Escherichia coli MTCC 443 assessed as growth inhibition after 24 to 48 hr by NCCLS broth microdilution method

| Compound | MIC (Aspergillus clavatus) [µg/mL] | MIC (Pseudomonas aeruginosa) [µg/mL] | MIC (Streptococcus pyogenes) [µg/mL] | MIC (Candida albicans) [µg/mL] | MIC (Staphylococcus aureus) [µg/mL] | MIC (Aspergillus niger) [µg/mL] | MIC (Escherichia coli) [µg/mL] |
| --- | --- | --- | --- | --- | --- | --- | --- |
| C=CCn1c(=O)c(C2C3=C(CC(C)(C)CC3=O)OC3=C2C(=O)c2ccccc2C3=O)cc2cc(C)ccc21 (stereo not drawn) | 1000 (≈ 1980 µM) | 500 (≈ 989 µM) | 250 (≈ 494 µM) | > 1000 | 500 (≈ 989 µM) | 125 (≈ 247 µM) | 62.5 (≈ 124 µM) |
| COC1=CC(=O)C[C@@H](C)[C@]12Oc1c(Cl)c(OC)cc(OC)c1C2=O [GRISEOFULVIN] | 100 (≈ 283 µM) | – | – | 500 (≈ 1420 µM) | – | 100 (≈ 283 µM) | – |
| C=CCn1c(=O)c(C2C(C#N)=C(N)OC3=C2C(=O)c2ccccc2C3=O)cc2cc(C)ccc21 (stereo not drawn) | 1000 (≈ 2220 µM) | 500 (≈ 1110 µM) | 100 (≈ 222 µM) | 1000 (≈ 2220 µM) | 200 (≈ 445 µM) | 500 (≈ 1110 µM) | 250 (≈ 556 µM) |
| C=CCn1c(=O)c(C2C(C(=O)OC(C)C)=C(N)OC3=C2C(=O)c2ccccc2C3=O)cc2ccccc21 (stereo not drawn) | > 1000 | 50 (≈ 101 µM) | 250 (≈ 504 µM) | 500 (≈ 1010 µM) | 500 (≈ 1010 µM) | 250 (≈ 504 µM) | 200 (≈ 403 µM) |
| C=CCn1c(=O)c(C2C3=C(CCCC3=O)OC3=C2C(=O)c2ccccc2C3=O)cc2cc(Cl)ccc21 (stereo not drawn) | 100 (≈ 201 µM) | 62.5 (≈ 126 µM) | 50 (≈ 100 µM) | 500 (≈ 1000 µM) | 500 (≈ 1000 µM) | 1000 (≈ 2010 µM) | 250 (≈ 502 µM) |
| C=CCn1c(=O)c(C2C(C#N)=C(N)OC3=C2C(=O)c2ccccc2C3=O)cc2cc(OC)ccc21 (stereo not drawn) | 1000 (≈ 2150 µM) | 200 (≈ 430 µM) | 200 (≈ 430 µM) | 1000 (≈ 2150 µM) | 250 (≈ 537 µM) | > 1000 | 125 (≈ 269 µM) |
| C=CCn1c(=O)c(C2C(C#N)=C(N)OC3=C2C(=O)c2ccccc2C3=O)cc2ccccc21 (stereo not drawn) | > 1000 | 250 (≈ 574 µM) | 250 (≈ 574 µM) | 250 (≈ 574 µM) | 62.5 (≈ 144 µM) | 500 (≈ 1150 µM) | 100 (≈ 230 µM) |
| C=CCn1c(=O)c(C2C(C(=O)OC(C)C)=C(N)OC3=C2C(=O)c2ccccc2C3=O)cc2cc(Cl)ccc21 (stereo not drawn) | 250 (≈ 471 µM) | 100 (≈ 188 µM) | 500 (≈ 942 µM) | 500 (≈ 942 µM) | 500 (≈ 942 µM) | 100 (≈ 188 µM) | 200 (≈ 377 µM) |
| C=CCn1c(=O)c(C2C3=C(CC(C)(C)CC3=O)OC3=C2C(=O)c2ccccc2C3=O)cc2ccccc21 (stereo not drawn) | > 1000 | 100 (≈ 203 µM) | 200 (≈ 407 µM) | > 1000 | 250 (≈ 509 µM) | > 1000 | 100 (≈ 203 µM) |
| C=CCn1c(=O)c(C2C3=C(CCCC3=O)OC3=C2C(=O)c2ccccc2C3=O)cc2ccccc21 (stereo not drawn) | 500 (≈ 1080 µM) | 250 (≈ 539 µM) | 125 (≈ 270 µM) | 250 (≈ 539 µM) | 200 (≈ 432 µM) | 500 (≈ 1080 µM) | 200 (≈ 432 µM) |
| CC1(C)S[C@@H]2[C@H](NC(=O)[C@H](N)c3ccccc3)C(=O)N2[C@H]1C(=O)O [AMPICILLIN] | – | – | 100 (≈ 286 µM) | – | 250 (≈ 715 µM) | – | 100 (≈ 286 µM) |
| C=CCn1c(=O)c(C2C3=C(CC(C)(C)CC3=O)OC3=C2C(=O)c2ccccc2C3=O)cc2cc(Cl)ccc21 (stereo not drawn) | 100 (≈ 190 µM) | 250 (≈ 475 µM) | 500 (≈ 951 µM) | > 1000 | 200 (≈ 380 µM) | 1000 (≈ 1900 µM) | 200 (≈ 380 µM) |
| C=CCn1c(=O)c(C2C(C(=O)OC(C)C)=C(N)OC3=C2C(=O)c2ccccc2C3=O)cc2cc(OC)ccc21 (stereo not drawn) | 500 (≈ 950 µM) | 200 (≈ 380 µM) | 200 (≈ 380 µM) | 1000 (≈ 1900 µM) | 100 (≈ 190 µM) | 500 (≈ 950 µM) | 250 (≈ 475 µM) |
| C=CCn1c(=O)c(C2C(C(=O)OC(C)C)=C(N)OC3=C2C(=O)c2ccccc2C3=O)cc2cc(C)ccc21 (stereo not drawn) | 500 (≈ 979 µM) | 250 (≈ 490 µM) | 500 (≈ 979 µM) | > 1000 | 125 (≈ 245 µM) | 1000 (≈ 1960 µM) | 25 (≈ 49 µM) |
| O=C(N[C@H](CO)[C@H](O)c1ccc([N+](=O)[O-])cc1)C(Cl)Cl [CHLORAMPHENICOL] | – | 50 (≈ 155 µM) | 50 (≈ 155 µM) | – | 50 (≈ 155 µM) | – | 50 (≈ 155 µM) |
| C=CCn1c(=O)c(C2C3=C(CC(C)(C)CC3=O)OC3=C2C(=O)c2ccccc2C3=O)cc2cc(OC)ccc21 (stereo not drawn) | 500 (≈ 959 µM) | 100 (≈ 192 µM) | 250 (≈ 479 µM) | 1000 (≈ 1920 µM) | 500 (≈ 959 µM) | 500 (≈ 959 µM) | 125 (≈ 240 µM) |
| NYSTATIN | 100 | – | – | 100 | – | 100 | – |
| C=CCn1c(=O)c(C2C3=C(CCCC3=O)OC3=C2C(=O)c2ccccc2C3=O)cc2cc(OC)ccc21 (stereo not drawn) | 1000 (≈ 2030 µM) | 20 (≈ 40.5 µM) | 500 (≈ 1010 µM) | 1000 (≈ 2030 µM) | 500 (≈ 1010 µM) | 100 (≈ 203 µM) | 250 (≈ 507 µM) |
| C=CCn1c(=O)c(C2C3=C(CCCC3=O)OC3=C2C(=O)c2ccccc2C3=O)cc2cc(C)ccc21 (stereo not drawn) | 1000 (≈ 2090 µM) | 250 (≈ 524 µM) | 250 (≈ 524 µM) | 500 (≈ 1050 µM) | 250 (≈ 524 µM) | 1000 (≈ 2090 µM) | 500 (≈ 1050 µM) |
| C=CCn1c(=O)c(C2C(C#N)=C(N)OC3=C2C(=O)c2ccccc2C3=O)cc2cc(Cl)ccc21 (stereo not drawn) | 100 (≈ 213 µM) | 500 (≈ 1060 µM) | 100 (≈ 213 µM) | 500 (≈ 1060 µM) | 500 (≈ 1060 µM) | 1000 (≈ 2130 µM) | 200 (≈ 426 µM) |
| O=C(O)c1cn(C2CC2)c2cc(N3CCNCC3)c(F)cc2c1=O [CIPROFLOXACIN] | – | – | 50 (≈ 151 µM) | – | 50 (≈ 151 µM) | – | 25 (≈ 75.4 µM) |
